Reference: the supplement of paper PMC13380429

Legend:
Settings in all cases: 72 h
HepG2 [1] = experiment: cell viability relative to DMSO; higher = less toxic
Vero E6 [2] = experiment: as above
Calu-3 [3] = experiment: as above
Caco-2 [4] = experiment: as above
U2OS [5] = experiment: as above
HepG2 [6] = experiment: relative viability EC50 (midpoint between 100% and the lowest measured viability); higher = less toxic
Vero E6 [7] = experiment: as above
Calu-3 [8] = experiment: as above
Caco-2 [9] = experiment: as above
U2OS [10] = experiment: as above
HepG2 [11] = experiment: drug sensitivity score (DSS) for viability; higher = more toxic; extreme values may be limits of the assay
Vero E6 [12] = experiment: as above
Calu-3 [13] = experiment: as above
Caco-2 [14] = experiment: as above
U2OS [15] = experiment: as above

Q: Which cell viability (HepG2 [1]; 1 nM) does the source give for `COc1cc(CCc2cc(NC(=O)c3ccc(N4CC(C)NC(C)C4)cc3)n[nH]2)cc(OC)c1` (stereo not given) [AZD4547] here?
A: 95.7%

Q: And the cell viability (HepG2 [1]; 10 nM)?
A: 105%

Q: And the cell viability (HepG2 [1]; 100 nM)?
A: 87.3%

Q: What about the cell viability (HepG2 [1]; 1000 nM) of the same compound?
A: 90.7%

Q: And the cell viability (HepG2 [1]; 10000 nM)?
A: 37%

Q: And the cell viability (Vero E6 [2]; 1 nM)?
A: 95.7%

Q: And the cell viability (Vero E6 [2]; 10 nM)?
A: 98.1%

Q: What about the cell viability (Vero E6 [2]; 100 nM) of the same compound?
A: 92.5%

Q: And the cell viability (Vero E6 [2]; 1000 nM)?
A: 96.2%

Q: What about the cell viability (Vero E6 [2]; 10000 nM) of the same compound?
A: 100%

Q: And the cell viability (Calu-3 [3]; 1 nM)?
A: 101%

Q: What about the cell viability (Calu-3 [3]; 10 nM) of the same compound?
A: 107%

Q: And the cell viability (Calu-3 [3]; 100 nM)?
A: 93.8%

Q: And the cell viability (Calu-3 [3]; 1000 nM)?
A: 99.4%

Q: And the cell viability (Calu-3 [3]; 10000 nM)?
A: 99.8%

Q: And the cell viability (Caco-2 [4]; 1 nM)?
A: 87.5%

Q: And the cell viability (Caco-2 [4]; 10 nM)?
A: 93.8%

Q: And the cell viability (Caco-2 [4]; 100 nM)?
A: 99.3%

Q: And the cell viability (Caco-2 [4]; 1000 nM)?
A: 104%

Q: And the cell viability (Caco-2 [4]; 10000 nM)?
A: 80.4%

Q: And the cell viability (U2OS [5]; 1 nM)?
A: 101%

Q: What about the cell viability (U2OS [5]; 10 nM) of the same compound?
A: 94.8%

Q: And the cell viability (U2OS [5]; 100 nM)?
A: 95.2%

Q: And the cell viability (U2OS [5]; 1000 nM)?
A: 88.2%

Q: What about the cell viability (U2OS [5]; 10000 nM) of the same compound?
A: 49.5%

Q: And the “relative viability EC50” value (HepG2 [6])?
A: 1.99 µM

Q: What about the “relative viability EC50” value (Vero E6 [7]) of the same compound?
A: > 10 µM

Q: And the “relative viability EC50” value (Calu-3 [8])?
A: > 10 µM

Q: And the “relative viability EC50” value (Caco-2 [9])?
A: > 10 µM

Q: What about the “relative viability EC50” value (U2OS [10]) of the same compound?
A: 1.61 µM

Q: What about the drug sensitivity score (HepG2 [11]) of the same compound?
A: 5

Q: What about the drug sensitivity score (Vero E6 [12]) of the same compound?
A: 0

Q: What about the drug sensitivity score (Calu-3 [13]) of the same compound?
A: 0

Q: What about the drug sensitivity score (Caco-2 [14]) of the same compound?
A: 0.2

Q: What about the drug sensitivity score (U2OS [15]) of the same compound?
A: 4.5

Q: With `CC(C)[C@@]1(NC(=O)[C@@H]2C[C@@H]3c4cccc5[nH]cc(c45)C[C@H]3N(C)C2)O[C@@]2(O)[C@@H]3CCCN3C(=O)[C@H](Cc3ccccc3)N2C1=O` [dihydroergocristine] as the compound, how does the cell viability (HepG2 [1]; 1 nM) read?
A: 103%

Q: What about the cell viability (HepG2 [1]; 10 nM) of the same compound?
A: 95.1%

Q: What about the cell viability (HepG2 [1]; 100 nM) of the same compound?
A: 95.8%

Q: What about the cell viability (HepG2 [1]; 1000 nM) of the same compound?
A: 100%

Q: What about the cell viability (HepG2 [1]; 10000 nM) of the same compound?
A: 86.4%

Q: And the cell viability (Vero E6 [2]; 1 nM)?
A: 102%

Q: And the cell viability (Vero E6 [2]; 10 nM)?
A: 100%

Q: What about the cell viability (Vero E6 [2]; 100 nM) of the same compound?
A: 102%

Q: And the cell viability (Vero E6 [2]; 1000 nM)?
A: 99%

Q: What about the cell viability (Vero E6 [2]; 10000 nM) of the same compound?
A: 99.5%

Q: And the cell viability (Calu-3 [3]; 1 nM)?
A: 92.6%

Q: What about the cell viability (Calu-3 [3]; 10 nM) of the same compound?
A: 97.5%

Q: What about the cell viability (Calu-3 [3]; 100 nM) of the same compound?
A: 99%

Q: And the cell viability (Calu-3 [3]; 1000 nM)?
A: 93.3%

Q: And the cell viability (Calu-3 [3]; 10000 nM)?
A: 94.9%

Q: And the cell viability (Caco-2 [4]; 1 nM)?
A: 105%

Q: What about the cell viability (Caco-2 [4]; 10 nM) of the same compound?
A: 100%

Q: And the cell viability (Caco-2 [4]; 100 nM)?
A: 89.3%

Q: What about the cell viability (Caco-2 [4]; 1000 nM) of the same compound?
A: 102%

Q: What about the cell viability (Caco-2 [4]; 10000 nM) of the same compound?
A: 91.7%

Q: And the cell viability (U2OS [5]; 1 nM)?
A: 96.3%

Q: What about the cell viability (U2OS [5]; 10 nM) of the same compound?
A: 100%

Q: What about the cell viability (U2OS [5]; 100 nM) of the same compound?
A: 99.2%

Q: What about the cell viability (U2OS [5]; 1000 nM) of the same compound?
A: 98.2%

Q: What about the cell viability (U2OS [5]; 10000 nM) of the same compound?
A: 96.4%

Q: And the “relative viability EC50” value (HepG2 [6])?
A: > 10 µM

Q: What about the “relative viability EC50” value (Vero E6 [7]) of the same compound?
A: > 10 µM

Q: What about the “relative viability EC50” value (Calu-3 [8]) of the same compound?
A: > 10 µM

Q: And the “relative viability EC50” value (Caco-2 [9])?
A: > 10 µM

Q: And the “relative viability EC50” value (U2OS [10])?
A: > 10 µM

Q: And the drug sensitivity score (HepG2 [11])?
A: 0.1

Q: What about the drug sensitivity score (Vero E6 [12]) of the same compound?
A: 0

Q: And the drug sensitivity score (Calu-3 [13])?
A: 0

Q: What about the drug sensitivity score (Caco-2 [14]) of the same compound?
A: 0

Q: And the drug sensitivity score (U2OS [15])?
A: 0

Q: `NCCC(=O)N[C@@H](Cc1c[nH]cn1)C(=O)O` [carnosine] was tested. Which cell viability (HepG2 [1]; 1 nM) did it give?
A: 111%

Q: And the cell viability (HepG2 [1]; 10 nM)?
A: 101%

Q: What about the cell viability (HepG2 [1]; 100 nM) of the same compound?
A: 97%

Q: What about the cell viability (HepG2 [1]; 1000 nM) of the same compound?
A: 101%

Q: What about the cell viability (HepG2 [1]; 10000 nM) of the same compound?
A: 12%

Q: And the cell viability (Vero E6 [2]; 1 nM)?
A: 94.3%

Q: What about the cell viability (Vero E6 [2]; 10 nM) of the same compound?
A: 95.3%

Q: What about the cell viability (Vero E6 [2]; 100 nM) of the same compound?
A: 95%

Q: What about the cell viability (Vero E6 [2]; 1000 nM) of the same compound?
A: 95.5%

Q: What about the cell viability (Vero E6 [2]; 10000 nM) of the same compound?
A: 17.9%

Q: What about the cell viability (Calu-3 [3]; 1 nM) of the same compound?
A: 95%

Q: And the cell viability (Calu-3 [3]; 10 nM)?
A: 93.4%

Q: What about the cell viability (Calu-3 [3]; 100 nM) of the same compound?
A: 104%

Q: What about the cell viability (Calu-3 [3]; 1000 nM) of the same compound?
A: 99.4%

Q: And the cell viability (Calu-3 [3]; 10000 nM)?
A: 48.6%

Q: What about the cell viability (Caco-2 [4]; 1 nM) of the same compound?
A: 99.5%

Q: What about the cell viability (Caco-2 [4]; 10 nM) of the same compound?
A: 97.8%

Q: And the cell viability (Caco-2 [4]; 100 nM)?
A: 92.3%

Q: And the cell viability (Caco-2 [4]; 1000 nM)?
A: 88.6%

Q: And the cell viability (Caco-2 [4]; 10000 nM)?
A: 15.4%

Q: And the cell viability (U2OS [5]; 1 nM)?
A: 96%

Q: What about the cell viability (U2OS [5]; 10 nM) of the same compound?
A: 97.2%

Q: What about the cell viability (U2OS [5]; 100 nM) of the same compound?
A: 92.3%

Q: And the cell viability (U2OS [5]; 1000 nM)?
A: 99.1%

Q: And the cell viability (U2OS [5]; 10000 nM)?
A: 28.7%

Q: What about the “relative viability EC50” value (HepG2 [6]) of the same compound?
A: 3.22 µM

Q: And the “relative viability EC50” value (Vero E6 [7])?
A: 2.74 µM

Q: And the “relative viability EC50” value (Calu-3 [8])?
A: 3.08 µM

Q: And the “relative viability EC50” value (Caco-2 [9])?
A: 2.08 µM

Q: And the “relative viability EC50” value (U2OS [10])?
A: 3.07 µM

Q: What about the drug sensitivity score (HepG2 [11]) of the same compound?
A: 4.8

Q: And the drug sensitivity score (Vero E6 [12])?
A: 5.2

Q: What about the drug sensitivity score (Calu-3 [13]) of the same compound?
A: 2.8

Q: And the drug sensitivity score (Caco-2 [14])?
A: 6.6

Q: What about the drug sensitivity score (U2OS [15]) of the same compound?
A: 4.1
